According to US8722674B2, “1,3,5-triazine-2,4,6-triamine compound or pharmaceutical acceptable salt thereof, and pharmaceutical composition comprising the same” (Hanall Biopharma Co., Ltd., priority 2007, dated 2014):
Counter-ions that a name gives are not always drawn. Blank lines part the entries; values can stand above or below the compound they belong to.

Legend:
[1] = system: HepG2 cells; experiment: Measurement of triglyceride (Amplex red fluorescence); type: cell-based; settings: 24 h treatment, lower is better
Procedure: (§1) Metformin that is widely used in type 2 diabetic patients inhibits the formation of glucose, the synthesis of cholesterol and triglyceride in liver cells and promote the absorption of glucose from blood vessels in the muscle cells. […] In the case of the ability to form cholesterol, triglyceride and glucose, the lower the numerical value, the better the effect. Numerical values for a control group become reference values.
(§2) As a hepatic cell model, HepG2 cells were cultured in 1% serum-containing media for 24 hours, and then treated with each of the compounds for 24 hours. Then, the cells were disrupted with lysis buffer (0.1M potassium phosphate, pH 7.4, 0.05 M NaCl, 5 mM cholic acid, 0.1% Triton X-100). To the disrupted cells, the same volume of a reaction solution (0.76 U/ml glycerol kinase, 151333 U/ml peroxidase, 22.2 U/ml glycerol oxidizing agent, and 300 μM Amplex red as a fluorescent factor) was added and allowed to react at 37° C. for 30 minutes. After completion of the reaction, the cells were measured with a fluorometer at a wavelength of 560/590 nm (ex/em), thus quantifying the amount of triglyceride formed in the cells. A lower measurement value means an increased lipid production inhibitory ability.

[2] = system: HepG2 cells; experiment: Measurement of gluconeogenesis (14C-lactate); type: cell-based; settings: 24 h treatment, lower is better
Procedure: as §1
As a hepatic cell model, HepG2 cells were cultured in 10% serum-containing high glucose media, and then treated with each of the compounds for 24 hours. Then, the cells were treated with 0.5 uCi 14C-lactate and 10 mM L-lactate, and cultured for 4 hours. After cultivation, the media of the cells were removed, and the cells were washed with PBS, treated with 0.1N NaOH and left to stand at room temperature for 1 hour. Then, the cells were neutralized with 1N HCl, and the amount of glucose formed in the cells was measured with a liquid scintillation counter. […] A lower measurement value means a stronger blood glucose lowering activity.

[3] = system: HepG2 cells; experiment: Measurement of cholesterol synthesis ability (Amplex red fluorescence); type: cell-based; settings: HepG2 cells, 24 h treatment, lower is better
Description: as §1
as §2, with “model, HepG2 cells were used to measure cholesterol synthesis inhibitory ability, which is the important function of AMPK. The hepatic cell model” for “model,”, “(0.1 M” for “(0.1M”, “(2” for “(0.76”, “cholesterol oxidizing agent, 2” for “glycerol kinase, 151333”, “0.2” for “22.2”, “cholesterol esterase,” for “glycerol oxidizing agent,”

[4] = system: C2C12 cells; experiment: Measurement of glucose absorption (3H-deoxy-glucose); type: cell-based
Description: as §1
As a muscle cell model, C2C12 cells were induced to differentiate into muscle cells in 2% bovine fetal serum for 6 days. The C2C12 cells which differentiated into muscle cells were treated with each of the compounds in serum-free low glucose media, and then cultured with 1 μM of insulin for 24 hours. After cultivation, the cells were treated with 1 μCi 3H-deoxy-glucose and 10 μM deoxy-glucose at 37° C. for 15 minutes. After treatment, the media were removed, and the cells were washed twice with PBS. The washed cells were treated with 0.1 N NaOH and neutralized with 1N HCl. The amount of glucose absorbed into the cells was measured with a liquid scintillation counter. The effect of the compounds was determined by selecting a compound showing an absorption effect of at least 200%, dividing the absorption effect by the average percent of the control group, and then multiplying the divided value by […]. A higher measurement value means a stronger ability to reduce insulin resistance.

[5] = Homo sapiens, 250 uM, read-out: triglyceride synthesis ability, % control
[6] = Homo sapiens, 500 uM, read-out: gluconeogenesis (glucose synthesis ability), % control
[7] = Homo sapiens, 250 uM, read-out: cholesterol synthesis ability, % control
[8] = Mus musculus, 250 uM, differentiated C2C12 muscle cells, with 1 μM insulin 24 h, higher is better, read-out: glucose absorption, % control
[9] = Homo sapiens, 100 uM, read-out: triglyceride synthesis ability, % control
[10] = Homo sapiens, read-out: gluconeogenesis (glucose synthesis ability), % control
[11] = Homo sapiens, 100 uM, read-out: cholesterol synthesis ability, % control
[12] = Mus musculus, differentiated C2C12 muscle cells, with 1 μM insulin 24 h, higher is better, read-out: glucose absorption, % control
[13] = Homo sapiens, 100 uM, read-out: gluconeogenesis (glucose synthesis ability), % control
[14] = Mus musculus, 100 uM, differentiated C2C12 muscle cells, with 1 μM insulin 24 h, higher is better, read-out: glucose absorption, % control

SMILES: CN(C)c1nc(N)nc(NCc2ccc3c(c2)OCO3)n1 (as salt: HCl) [Example 1, N2-(benzo[d][1,3]dioxol-5-ylmethyl)-N4,N4-dimethyl-1,3,5-triazine-2,4,6-triamine]
melting point: 193.7 to 219.6 °C

SMILES: CN(C)c1nc(N)nc(NCc2ccc3c(c2)OCO3)n1 [Example 1, N2-(benzo[d][1,3]dioxol-5-ylmethyl)-N4,N4-dimethyl-1,3,5-triazine-2,4,6-triamine]
activity at 250 µM [1, 5]: 103% | activity at 500 µM [2, 6]: 105% | activity at 250 µM [3, 7]: 81.1% | activity at 250 µM [4, 8]: 133%

SMILES: CN(C)c1nc(N)nc(Nc2cccc(Br)c2)n1 [Example 2, N2-(3-bromophenyl)-N4,N4-dimethyl-1,3,5-trizaine-2,4,6-triamine]
triglyceride synthesis ability, % control ([1]; 100 uM): 19.11% | gluconeogenesis (glucose synthesis ability), % control ([2]; 100 uM): 51.89% | cholesterol synthesis ability, % control ([3]; 100 uM): 23.15% | glucose absorption, % control ([4]; 100 uM, differentiated C2C12 muscle cells, with 1 μM insulin 24 h, higher is better): 35.23%

SMILES: CN(C)c1nc(N)nc(NCc2cccnc2)n1 [Example 4, N2,N2-dimethyl-N4-(2-pyridine-3-ylmethyl)-1,3,5-triazine-2,4,6-triamine]
triglyceride synthesis ability, % control ([1]; 250 uM): 99.48% | gluconeogenesis (glucose synthesis ability), % control ([2]; 500 uM): 92.14% | cholesterol synthesis ability, % control ([3]; 250 uM): 93.66% | glucose absorption, % control ([4]; 250 uM, differentiated C2C12 muscle cells, with 1 μM insulin 24 h, higher is better): 143.92%

SMILES: Nc1nc(N)nc(NCc2ccc3c(c2)OCO3)n1 [Example 6, N2-(benzo[d][1,3]dioxol-5-ylmethyl)-1,3,5-triazine-2,4,6-triamine]
activity at 250 µM [1, 5]: 108% | activity at 500 µM [2, 6]: 82.3% | activity at 250 µM [3, 7]: 92.7% | activity at 250 µM [4, 8]: 114% | melting point: 140.8 to 142.9 °C

SMILES: COc1ccc(CNc2nc(N)nc(N(C)C)n2)cc1O [Example 8, 5-((4-amino-6-(dimethylamino)-1,3,5-triazine-2-ylamino)methyl)-2-methoxyphenol]
activity at 100 µM [1, 9]: 106% | activity at 200 µM [2, 10]: 94.8% | activity at 100 µM [3, 11]: 59.1% | activity at 200 µM [4, 12]: 126% | melting point: 141.4 to 142 °C

SMILES: CN(C)c1nc(N)nc(Nc2ccc(Cl)c(Cl)c2)n1 [Example 17, N2-(3,4-dichlorophenyl)-N4,N4-dimethyl-1,3,5-triazine-2,4,6-triamine]
activity at 100 µM [1, 9]: -12.1% | activity at 100 µM [2, 13]: 15.2% | activity at 100 µM [3, 11]: 11.3% | activity at 100 µM [4, 14]: 7.29%

SMILES: CC(C)c1ccc(Nc2nc(N)nc(N(C)C)n2)cc1 [Example 28, N2-(4-isopropylphenyl)-N4,N4-dimethyl-1,3,5-triazine-2,4,6-triamine]
activity at 100 µM [1, 9]: 43.2% | activity at 100 µM [2, 13]: 45.4% | activity at 100 µM [3, 11]: 65.9% | activity at 100 µM [4, 14]: 173%

SMILES: CN(C)c1nc(N)nc(Nc2ccccc2F)n1 [Example 30, N2-(2-fluorophenyl)-N4,N4-dimethyl-1,3,5-triazine-2,4,6-triamine]
activity at 100 µM [1, 9]: 81.1% | activity at 100 µM [2, 13]: 85.5% | activity at 100 µM [3, 11]: 75.7% | activity at 100 µM [4, 14]: 133%

SMILES: CN(C)c1nc(N)nc(N2CCCC2)n1 [Example 35, N2,N2-dimethyl-6-(pyrrolidin-1-yl)-1,3,5-triazine-2,4-diamine]
activity at 100 µM [1, 9]: 99.9% | activity at 100 µM [2, 13]: 91.4% | activity at 100 µM [3, 11]: 69% | activity at 100 µM [4, 14]: 285% | effect of reducing insulin resistance, times better than the control group ([4]; absorption effect divided by average percent of control group (metformin 2 mM), multiplied by 20): about 17 times

SMILES: CCc1ccccc1Nc1nc(N)nc(N(C)C)n1 [Example 36, N2-(2-ethylphenyl)-N4,N4-dimethyl-1,3,5-triazine-2,4,6-triamine]
activity at 100 µM [1, 9]: 75.1% | activity at 100 µM [2, 13]: 42.1% | activity at 100 µM [3, 11]: 51% | activity at 100 µM [4, 14]: 100%

SMILES: CCCCCCc1ccc(Nc2nc(N)nc(N(C)C)n2)cc1 [Example 42, N2-(4-hexylphenyl)-N4,N4-dimethyl-1,3,5-triazine-2,4,6-triamine]
activity at 100 µM [1, 9]: 34.3% | activity at 100 µM [3, 11]: 39% | melting point: 132 to 168 °C

SMILES: CN(C)C(=N)N=C(N)N [Metformin, reference compound]
activity at 2000 µM ([1]; Homo sapiens, 2 mM, read-out: triglyceride synthesis ability, % control): 70.6% | activity at 2000 µM ([2]; Homo sapiens, 2 mM, read-out: gluconeogenesis (glucose synthesis ability), % control): 52.7% | activity at 2000 µM ([3]; Homo sapiens, 2 mM, read-out: cholesterol synthesis ability, % control): 83.5% | activity at 2000 µM ([4]; Mus musculus, 2 mM, differentiated C2C12 muscle cells, with 1 μM insulin 24 h, higher is better, read-out: glucose absorption, % control): 329%

Second part, led by results:

melting point: 138.2 to 141.6 °C
SMILES: CN(C)c1nc(N)nc(NCCN2CCOCC2)n1 [Example 3, N2,N2-dimethyl-N4-(2-morpholinoethyl)-1,3,5-triazine-2,4,6-triamine]
activity at 250 µM [1, 5]: 98% | activity at 500 µM [2, 6]: 67.6% | activity at 250 µM [3, 7]: 113% | activity at 250 µM [4, 8]: 132%

melting point: 151.6 to 152 °C
SMILES: CN(C)c1nc(N)nc(NCc2ccco2)n1 [Example 5, N2-(furan-2-ylmethyl)-N4,N4-dimethyl-1,3,5-triazine-2,4,6-triamine]
activity at 250 µM [1, 5]: 90.2% | activity at 500 µM [2, 6]: 68.5% | activity at 250 µM [3, 7]: 77.5% | activity at 250 µM [4, 8]: 142%

melting point: 116.6 to 117.2 °C
SMILES: CN(C)c1nc(N)nc(NCCN2CCCCC2)n1 [Example 7, N2,N2-dimethyl-N4-(2-(piperidin-1-yl)ethyl)-1,3,5-triazine-2,4,6-triamine]
activity at 100 µM [1, 9]: 95.8% | activity at 200 µM [2, 10]: 101% | activity at 100 µM [3, 11]: 97.4% | activity at 200 µM [4, 12]: 131%

melting point: 176.5 to 177 °C
SMILES: CN(C)c1nc(N)nc(NCCCN2CCCC2=O)n1 [Example 9, 1-(3-(4-amino-6-(dimethylamino)-1,3,5-triazin-2-ylamino)propyl)pyrrolidin-2-one]
activity at 100 µM [1, 9]: 95.2% | activity at 200 µM [2, 10]: 110% | activity at 100 µM [3, 11]: 93.5% | activity at 200 µM [4, 12]: 120%

melting point: 227 to 228 °C
SMILES: CN(C)c1nc(N)nc(N(C)C)n1 [Example 10, N2,N2,N4,N4-tetramethyl-1,3,5-triazine-2,4,6-triamine]
activity at 100 µM [1, 9]: 97% | activity at 200 µM [2, 10]: 87.2% | activity at 100 µM [3, 11]: 98.9% | activity at 200 µM [4, 12]: 102%

melting point: 271.8 to 272.8 °C
SMILES: CN(C)c1nc(N)nc(N)n1 [Example 11, N2,N2-dimethyl-1,3,5-triazine-2,4,6-triamine]
activity at 100 µM [1, 9]: 97.6% | activity at 200 µM [2, 10]: 70.4% | activity at 100 µM [3, 11]: 97.7% | activity at 200 µM [4, 12]: 106%

melting point: 253 to 263 °C
SMILES: CN(C)c1nc(N)nc(Nc2ccc(C(C)(C)C)cc2)n1 [Example 22, N2-(4-tert-butylphenyl)-N4,N4-dimethyl-1,3,5-triazine-2,4,6-triamine]
activity at 100 µM [1, 9]: 34.4% | activity at 100 µM [3, 11]: 53%
